Measured values from ChEMBL document CHEMBL1201862, “PubChem BioAssay data set” (2004).
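Step 1: Grow cells in 96-well plates. Step 2: Expose to compound for 48 hours at 5 concentrations. Step 3: Interpolate endpoints linearly; if unreached, use highest concentration. GI50 = concentration required for 50% inhibition of growth.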 Activity calls are given as the source filed them. Rule as the data show it: active = GI50 up to about 1.1 µM and inactive = higher.

Assays:
Experiment in all cases: DTP human tumour cell line panel, 48 h
[1] = system: 786-0
[2] = system: A549
[3] = system: ACHN
[4] = system: CAKI-1
[5] = system: CCRF-CEM
[6] = system: COLO 205
[7] = system: DLD-1
[8] = system: DMS-114
[9] = system: DMS-273
[10] = system: HCC 2998
[11] = system: HCT-116
[12] = system: HCT-15
[13] = system: HL-60
[14] = system: HOP-62
[15] = system: HOP-92
[16] = system: HT-29
[17] = system: IGROV-1
[18] = system: K562
[19] = system: KM-20L2
[20] = system: KM12
[21] = system: LXFL 529
[22] = system: M14
[23] = system: M19-MEL
[24] = system: MOLT-4
[25] = system: Malme-3M
[26] = system: NCI-H226
[27] = system: NCI-H23
[28] = system: NCI-H460
[29] = system: NCI-H522
[30] = system: OVCAR-3
[31] = system: OVCAR-4
[32] = system: OVCAR-5
[33] = system: OVCAR-8
[34] = system: RPMI-8226
[35] = system: SF-268
[36] = system: SF-295
[37] = system: SF-539
[38] = system: SK-MEL-28
[39] = system: SK-MEL-2
[40] = system: SK-MEL-5
[41] = system: SNB-19
[42] = system: SNB-75
[43] = system: SR
[44] = system: SW-620
[45] = system: TK-10
[46] = system: U-251
[47] = system: UACC-257
[48] = system: UACC-62
[49] = system: UO-31
[50] = system: XF498
[51] = system: RXF 393
[52] = system: SK-OV-3
[53] = system: SN12C
[54] = system: SNB-78

## C#CC1(O)CCC2C3CCc4cc(Oc5nc(F)nc(-c6c7ccccc7c7n6CCS7)n5)ccc4C3CC[C@@]21C (stereo not given in full)
[1]
  GI50: 34.1 µM (inactive)
[2]
  GI50: 33.6 µM (inactive)
[3]
  GI50: 29.6 µM (inactive)
[4]
  GI50: 28.8 µM (inactive)
[5]
  GI50: 11 µM (inactive)
[6]
  GI50: 29 µM (inactive)
[7]
  GI50: 39.8 µM (inactive)
[8]
  GI50: 11.2 µM (inactive)
[9]
  GI50: 27.2 µM (inactive)
[10]
  GI50: 19.2 µM (inactive)
[11]
  GI50: 12.1 µM (inactive)
[12]
  GI50: 15.1 µM
[13]
  GI50: 19.8 µM (inactive)
[14]
  GI50: 17.9 µM (inactive)
[15]
  GI50: 23.8 µM (inactive)
[16]
  GI50: 27.9 µM (inactive)
[17]
  GI50: 29.2 µM (inactive)
[18]
  GI50: 21.3 µM (inactive)
[19]
  GI50: 29.2 µM (inactive)
[20]
  GI50: 15.1 µM (inactive)
[21]
  GI50: 25.1 µM (inactive)
[22]
  GI50: 17.5 µM (inactive)
[23]
  GI50: 33.9 µM (inactive)
[24]
  GI50: 26.9 µM (inactive)
[25]
  GI50: 38.5 µM (inactive)
[26]
  GI50: 34 µM (inactive)
[27]
  GI50: 18.7 µM (inactive)
[28]
  GI50: 35.4 µM (inactive)
[29]
  GI50: 4.37 µM (inactive)
[30]
  GI50: 17.9 µM (inactive)
[31]
  GI50: 15.3 µM (inactive)
[32]
  GI50: > 100 µM (inactive)
[33]
  GI50: 27.7 µM (inactive)
[34]
  GI50: 19.6 µM (inactive)
[35]
  GI50: 29 µM (inactive)
[36]
  GI50: 15.6 µM (inactive)
[37]
  GI50: 15.7 µM (inactive)
[38]
  GI50: 21.1 µM (inactive)
[39]
  GI50: 5.62 µM (inactive)
[40]
  GI50: 17.4 µM (inactive)
[41]
  GI50: 24.6 µM (inactive)
[42]
  GI50: 12.2 µM (inactive)
[43]
  GI50: 5.79 µM (inactive)
[44]
  GI50: 32.6 µM (inactive)
[45]
  GI50: 27.2 µM (inactive)
[46]
  GI50: 17.5 µM (inactive)
[47]
  GI50: 36.1 µM (inactive)
[48]
  GI50: 21.1 µM (inactive)
[49]
  GI50: 28.6 µM (inactive)
[50]
  GI50: 37.7 µM (inactive)

## COc1cc(/C=C(\NC(=O)c2ccccc2)c2nc3cc([N+](=O)[O-])ccc3[nH]2)cc(OC)c1OC
[4]
  GI50: 68.5 µM (inactive)
[5]
  GI50: 35.9 µM (inactive)
[6]
  GI50: > 100 µM (inactive)
[7]
  GI50: 57.3 µM (inactive)
[8]
  GI50: 57.9 µM (inactive)
[10]
  GI50: > 100 µM (inactive)
[12]
  GI50: 40 µM
[15]
  GI50: 57 µM (inactive)
[16]
  GI50: > 100 µM (inactive)
[17]
  GI50: > 100 µM (inactive)
[18]
  GI50: 34.3 µM (inactive)
[19]
  GI50: 78.7 µM (inactive)
[20]
  GI50: 84.5 µM (inactive)
[21]
  GI50: 35.4 µM (inactive)
[22]
  GI50: > 100 µM (inactive)
[23]
  GI50: > 100 µM (inactive)
[24]
  GI50: 29 µM (inactive)
[25]
  GI50: > 100 µM (inactive)
[27]
  GI50: > 100 µM (inactive)
[29]
  GI50: 30.2 µM (inactive)
[30]
  GI50: > 100 µM (inactive)
[31]
  GI50: 38.5 µM (inactive)
[32]
  GI50: > 100 µM (inactive)
[33]
  GI50: 96.4 µM (inactive)
[51]
  GI50: > 100 µM (inactive)
[36]
  GI50: > 100 µM (inactive)
[38]
  GI50: > 100 µM (inactive)
[39]
  GI50: > 100 µM (inactive)
[40]
  GI50: 96.6 µM (inactive)
[52]
  GI50: 78.3 µM (inactive)
[53]
  GI50: > 100 µM (inactive)
[41]
  GI50: > 100 µM (inactive)
[54]
  GI50: > 100 µM (inactive)
[43]
  GI50: 42.2 µM (inactive)
[44]
  GI50: 76.7 µM (inactive)
[45]
  GI50: > 100 µM (inactive)
[46]
  GI50: > 100 µM (inactive)
[48]
  GI50: > 100 µM (inactive)
[49]
  GI50: 23.1 µM (inactive)
[50]
  GI50: > 100 µM (inactive)
